Measurements reported in the NIST ThermoML archive (doi:10.1016/j.fluid.2014.10.015).

Conditions: for mass density / viscosity: Liquid; for mass density: Vibrating tube method; for viscosity: Concentric cylinders viscometry; for surface tension liquid-gas: Pendant drop shape

CC(=O)[O-].CCCCn1cc[n+](C)c1 [1-butyl-3-methylimidazolium acetate]
Conditions	mass density [kg/m3]	viscosity [mPa·s]
273.15 K, 101 kPa	1068.3	–
273.15 K, 101.33 kPa	1068.29	–
273.15 K, 238 kPa	1068.35	–
273.15 K, 5002 kPa	1070.1	–
273.15 K, 10020 kPa	1071.93	–
273.15 K, 19968 kPa	1075.5	–
273.15 K, 29945 kPa	1079.01	–
273.15 K, 40001 kPa	1082.46	–
273.15 K, 49987 kPa	1085.81	–
273.15 K, 59935 kPa	1089.07	–
273.15 K, 69985 kPa	1092.29	–
273.15 K, 79928 kPa	1095.39	–
273.15 K, 90040 kPa	1098.47	–
273.15 K, 99956 kPa	1101.42	–
273.15 K, 109260 kPa	1104.11	–
273.15 K, 119925 kPa	1107.11	–
273.15 K, 129945 kPa	1109.85	–
273.15 K, 139956 kPa	1112.52	–
278.15 K, 101.33 kPa	–	3157.5
278.17 K, 101.33 kPa	1065.11	–
283.12 K, 747 kPa	1062.18	–
283.13 K, 5103 kPa	1063.85	–
283.15 K, 101 kPa	1061.93	–
283.15 K, 101.33 kPa	–	1818.3
283.15 K, 59694 kPa	1083.4	–
283.15 K, 70000 kPa	1086.8	–
283.15 K, 79404 kPa	1089.83	–
283.15 K, 90034 kPa	1093.15	–
283.15 K, 98553 kPa	1095.75	–
283.15 K, 109979 kPa	1099.13	–
283.15 K, 120352 kPa	1102.1	–
283.15 K, 129998 kPa	1104.78	–
283.15 K, 139706 kPa	1107.39	–
283.16 K, 9902 kPa	1065.67	–
283.16 K, 29987 kPa	1073.08	–
283.16 K, 39574 kPa	1076.5	–
283.16 K, 50021 kPa	1080.12	–
283.17 K, 101.33 kPa	1061.96	–
283.17 K, 19845 kPa	1069.38	–
293.13 K, 99228 kPa	1090.59	–
293.13 K, 110000 kPa	1093.89	–
293.13 K, 120552 kPa	1097.03	–
293.13 K, 130029 kPa	1099.77	–
293.13 K, 139794 kPa	1102.51	–
293.14 K, 19892 kPa	1063.32	–
293.14 K, 89975 kPa	1087.68	–
293.15 K, 101 kPa	1055.7	–
293.15 K, 101.33 kPa	1055.7	689.5
293.15 K, 928 kPa	1056.02	–
293.15 K, 10042 kPa	1059.57	–
293.15 K, 29991 kPa	1067.08	–
293.15 K, 50024 kPa	1074.3	–
293.15 K, 59451 kPa	1077.57	–
293.15 K, 70011 kPa	1081.16	–
293.15 K, 79858 kPa	1084.42	–
293.16 K, 4731 kPa	1057.51	–
293.16 K, 39318 kPa	1070.48	–
298.13 K, 119989 kPa	1094.32	–
298.14 K, 19965 kPa	1060.4	–
298.14 K, 59928 kPa	1075.03	–
298.15 K, 101 kPa	1052.59	–
298.15 K, 101.33 kPa	1052.59	447.5
298.15 K, 1002 kPa	1052.95	–
298.15 K, 10002 kPa	1056.52	–
298.15 K, 29947 kPa	1064.19	–
298.15 K, 49953 kPa	1071.51	–
298.15 K, 70002 kPa	1078.49	–
298.15 K, 89954 kPa	1085.08	–
298.15 K, 109924 kPa	1091.31	–
298.15 K, 129954 kPa	1097.2	–
298.15 K, 139957 kPa	1100.01	–
298.16 K, 5001 kPa	1054.55	–
298.16 K, 39934 kPa	1067.89	–
298.16 K, 80006 kPa	1081.84	–
298.16 K, 99359 kPa	1088.06	–
313.13 K, 101.33 kPa	1043.35	–
313.13 K, 20418 kPa	1051.65	–
313.13 K, 30021 kPa	1055.44	–
313.13 K, 39510 kPa	1059.09	–
313.13 K, 50039 kPa	1063.04	–
313.14 K, 59562 kPa	1066.53	–
313.14 K, 139775 kPa	1092.44	–
313.15 K, 101 kPa	1043.35	–
313.15 K, 101.33 kPa	–	155
313.15 K, 70013 kPa	1070.25	–
313.15 K, 119744 kPa	1086.54	–
313.15 K, 129979 kPa	1089.6	–
313.16 K, 10222 kPa	1047.54	–
313.16 K, 79427 kPa	1073.52	–
313.16 K, 89989 kPa	1077.08	–
313.16 K, 98994 kPa	1080.03	–
313.16 K, 109981 kPa	1083.53	–
313.17 K, 5238 kPa	1045.49	–
313.18 K, 1226 kPa	1043.82	–
333.13 K, 101.33 kPa	1031.21	–
333.14 K, 9567 kPa	1035.37	–
333.15 K, 101 kPa	1031.21	–
333.15 K, 101.33 kPa	–	53.5
333.15 K, 628 kPa	1031.45	–
333.15 K, 4971 kPa	1033.37	–
333.15 K, 20116 kPa	1039.9	–
333.15 K, 29979 kPa	1044.01	–
333.15 K, 49981 kPa	1052.04	–
333.15 K, 59681 kPa	1055.77	–
333.15 K, 70024 kPa	1059.64	–
333.15 K, 79610 kPa	1063.12	–
333.16 K, 39561 kPa	1047.91	–
333.16 K, 89976 kPa	1066.77	–
333.17 K, 99080 kPa	1069.88	–
333.17 K, 109991 kPa	1073.48	–
333.17 K, 120185 kPa	1076.74	–
333.17 K, 129974 kPa	1079.75	–
333.17 K, 139981 kPa	1082.73	–
343.16 K, 101.33 kPa	1025.2	–
353.12 K, 1410 kPa	1019.9	–
353.12 K, 139714 kPa	1072.82	–
353.13 K, 120068 kPa	1066.76	–
353.13 K, 130015 kPa	1069.89	–
353.14 K, 4959 kPa	1021.56	–
353.14 K, 99015 kPa	1059.73	–
353.14 K, 109983 kPa	1063.46	–
353.15 K, 101 kPa	1019.28	–
353.15 K, 101.33 kPa	1019.28	24.4
353.15 K, 60022 kPa	1045.25	–
353.15 K, 70021 kPa	1049.15	–
353.15 K, 80038 kPa	1052.92	–
353.15 K, 90002 kPa	1056.56	–
353.16 K, 9951 kPa	1023.86	–
353.16 K, 49992 kPa	1041.22	–
353.17 K, 20183 kPa	1028.49	–
353.17 K, 29998 kPa	1032.8	–
353.18 K, 39534 kPa	1036.88	–
373.14 K, 19875 kPa	1017.03	–
373.14 K, 139805 kPa	1063.23	–
373.15 K, 101 kPa	1007.58	–
373.15 K, 101.33 kPa	–	13.8
373.15 K, 9977 kPa	1012.37	–
373.15 K, 99180 kPa	1049.72	–
373.15 K, 110012 kPa	1053.53	–
373.15 K, 120856 kPa	1057.2	–
373.15 K, 129989 kPa	1060.16	–
373.16 K, 4871 kPa	1009.91	–
373.16 K, 29995 kPa	1021.67	–
373.16 K, 49968 kPa	1030.42	–
373.16 K, 59224 kPa	1034.29	–
373.16 K, 90022 kPa	1046.37	–
373.17 K, 2297 kPa	1008.66	–
373.17 K, 39711 kPa	1025.99	–
373.17 K, 69994 kPa	1038.66	–
373.18 K, 79589 kPa	1042.42	–
393.13 K, 5180 kPa	998.69	–
393.14 K, 60153 kPa	1024.29	–
393.14 K, 69980 kPa	1028.4	–
393.14 K, 80125 kPa	1032.49	–
393.14 K, 120002 kPa	1047.09	–
393.15 K, 101 kPa	996.11	–
393.15 K, 3086 kPa	997.63	–
393.15 K, 10081 kPa	1001.16	–
393.15 K, 20117 kPa	1006.09	–
393.15 K, 30011 kPa	1010.81	–
393.15 K, 40130 kPa	1015.49	–
393.15 K, 49985 kPa	1019.89	–
393.15 K, 90011 kPa	1036.33	–
393.15 K, 109214 kPa	1043.37	–
393.15 K, 130005 kPa	1050.39	–
393.16 K, 99789 kPa	1039.98	–
393.16 K, 139958 kPa	1053.52	–
413.12 K, 2006 kPa	985.88	–
413.12 K, 5092 kPa	987.51	–
413.13 K, 20186 kPa	995.28	–
413.14 K, 30014 kPa	1000.15	–
413.14 K, 40204 kPa	1005.02	–
413.14 K, 49979 kPa	1009.54	–
413.14 K, 60179 kPa	1014.09	–
413.14 K, 70022 kPa	1018.33	–
413.14 K, 99791 kPa	1030.18	–
413.14 K, 119957 kPa	1037.4	–
413.14 K, 139956 kPa	1043.92	–
413.15 K, 101 kPa	984.86	–
413.15 K, 79800 kPa	1022.54	–
413.15 K, 90200 kPa	1026.45	–
413.15 K, 109956 kPa	1033.9	–
413.15 K, 129954 kPa	1040.74	–
413.16 K, 10624 kPa	990.4	–

Conditions	surface tension liquid-gas [mN/m]
293.2 K	37.87
298.2 K	37.61
303.2 K	37.36
308.2 K	37.11
313.2 K	36.88
318.2 K	36.63
323.2 K	36.42
328.2 K	36.2
